{"source": "patent US20250186489A1", "about": "“REPROGRAMMING OF CELLS TO TYPE 1 CONVENTIONAL DENDRITIC CELLS OR ANTIGEN-PRESENTING CELLS” (Asgard Therapeutics AB, priority 2021, published 2025)", "key": {"[1]": {"test_system": "human cancer cell lines", "experiment": "Effect of valproic acid on cDC1 reprogramming of human cancer cell lines", "assay_type": "cell-based", "details": "VPA from day 1 to day 4, day 9", "method": "(§1) Cancer cell lines were transduced with PIB-IRES-EGFP lentiviral particles or EGFP as control, and cultured in the presence or absence of VPA from reprogramming day 1 to day 4, and reprogramming efficiency was quantified by flow cytometry at reprogramming day 9 in live EGFP^+ cells according to the surface expression of CD45^+ and MHC-II or HLA-DR. Reprogrammed cells were then analysed as previously described."}, "[2]": {"test_system": "LLC and B16 cells", "experiment": "Effect of valproic acid on reprogramming of mouse cancer cells", "assay_type": "cell-based", "details": "for fold enhancement of CD45^+ MHC-II^+ tumour-APC generation: SFFV-PIB-eGFP; for fold enhancement of CD45^+ MHC-II^+ tumour-APC generation / CD45^+ MHC-II^+ tumour-APCs: day 9", "method": "as §1"}, "[3]": {"test_system": "B16-OVA cells", "experiment": "T cell killing assay of B16-OVA target cells", "assay_type": "cell-based, mouse", "details": "low (1:1) T cell to target ratio, 3 days co-culture", "method": "CD8^+ T cells from spleen of OT-I mice were enriched using a mouse CD8^+ T cell isolation kit (Miltenyi) according to manufacturer's protocol. 6-well untreated plates were coated with anti-CD3 and anti-CD28 at 2×10^−3 mg mL^−1 for 2 h at 37° C. and washed 3× before 1×10^6 T cells per mL were seeded in complete growth media (RPMI) supplemented with murine IL-2 (Peprotech, 100 U mL-1) and murine IL-12p70 (Peprotech, 2.5×10−3 mg mL-1). After 24 h of activation, T cells were re-seeded at 1×10^6 cells per mL in fresh complete RPMI supplemented with murine IL-2 for 48 h on new untreated plates to allow T cell expansion. MACS-sorted reprogrammed mOrange^+ B16-OVA cells or IFN-γ treated cells were seeded with non-fluorescent B16-OVA (mOrange−) in equal numbers, 24 h before co-culture with T cells. Expanded T cells were added in ratios of 0:1, 1:1, 5:1, 10:1 T cell to target cell. […] For flow cytometry analysis, cells were resuspended and stained for viability (DAPI) and anti-CD3 and measured at indicated time points post co-culture with T cells."}, "[4]": {"test_system": "human embryonic fibroblasts (HEF)", "experiment": "cDC1 reprogramming efficiency of human embryonic fibroblasts, flow cytometry for CD45+HLA-DR+ cells at day 9", "assay_type": "cell-based", "details": "HEF with Dox-inducible PIB", "method": "HEFs, HDFs and Clec9a-tdTomato MEFs were seeded at a density of 40,000 cells per well and MSCs at a density of 50,000 cells per well on 0.1% gelatin coated 6-well plates. On the following day, cells were incubated overnight with either a ratio of 1:1 TetO-PIB and M2rtTA, SFFV-PIB-GFP or SFFV-GFP lentiviral particles in media supplemented with 8 μg/ml polybrene. Cells were transduced overnight twice in consecutive days and media replaced in between. After the second transduction, media was replaced by normal growth media (day 0). When using TetO-PIB, media was supplemented with Dox (1 μg/ml). Media was changed every 2-3 days for the duration of cultures. When stated, media was supplemented with LPS (100 ng/ml, Enzo), Poly I:C (25 μg/ml, InvivoGen) and R848 (3 μg/ml, InvivoGen) overnight. Cytokines were added at day 2 and kept for the duration of cultures; For reprogramming in xeno-free conditions, MSCs were cultured in X-Vivo 15 (Lonza) after transduction and media changed every 2-3 days for the duration of cultures.\nFor the analysis of surface marker expression, human and mouse cells were dissociated and incubated with antibodies diluted in PBS 5% FBS at 4° C. for 30 minutes in the presence of mouse or rat serum (1/100, GeneTex), for human and mouse cells respectively, to block unspecific binding. Cells were washed and resuspended in PBS 5% FBS and analyzed in BD FACSCanto II or BD LSRFortessa flow cytometers (BD Biosciences), unless stated otherwise. DAPI was used for dead cell exclusion. Flow cytometry data were analyzed using FlowJo software (FLOWJO, LLC, version 10.6.1). All flow cytometry analyses were performed in live single cell gates.\nCoding regions of ID2, TXNIP, ZFP36, PLEK, SUB1, JUNB, CREM, KLF4, MXD1, LITAF, IRF7, FOS, NMI, TFEC, SP110, IRF5, STAT2, BATF, ZNF267, IRF1, RELB and BATF2 were individually cloned in the pFUW-TetO plasmid. […] Reprogramming efficiency was evaluated by flow cytometry in HEFs 9 days after transcription factor overexpression.\n17 human hematopoietic cytokines including inflammatory mediators (Table 3) were individually added to the culture media 2 days after PIB induction in HEFs, and reprogramming efficiency was measured at day 9. Changes in reprogramming efficiency were analysed using both single cytokines and combinations of two or three cytokines.\nThe impact on reprogramming efficiency after a combination of cytokine treatment and SFFV-driven PIB induction was evaluated. The scPred system was used for integration with “natural” DCs. See previous Examples for experimental details."}, "[5]": {"test_system": "chromatin", "experiment": "ChIP-seq of PU.1, IRF8 and BATF3 in HDFs 48 h after induction", "assay_type": "binding, human", "details": "for chromatin binding, number of peaks: factors co-expressed, HDFs, 48 h; for positions shared between the three factors as share of total peaks of the factor: factors expressed together", "method": "TFs were delivered with a polycistronic lentiviral vector (pFUW-tetO-PIB) or individual vectors (pFUW-tetO-PU.1, pFUW-tetO-IRF8, or pFUW-tetO-BATF3) with pFUW-M2rtTA. ChIP was performed 48 hours after the addition of Dox.\nChromatin in cultured cells was fixed by adding 1/10 volume of freshly-prepared formaldehyde solution [11% Formaldehyde (Sigma), 0.1M NaCl, 1 mM EDTA and 50 mM HEPES] to each cell suspension in complete DMEM. Tubes were left 15 minutes at room temperature with agitation. Fixation was stopped by adding 1/20 volume of […] Glycine solution (Sigma). After 5 minutes incubation, cells were centrifuged at 800 g for 10 min at 4° C. Cell pellets were resuspended in 10 ml chilled PBS-Igepal, 100 μl PMSF were added to each tube and centrifuged at 800 g for 10 minutes at 4° C. Cell pellets were snap-frozen on dry ice and stored at −80° C. Active Motif (Carlsbad, CA) prepared chromatin, performed ChIP, generated libraries and sequenced libraries. Briefly, chromatin was isolated by adding lysis buffer, followed by disruption with a Dounce homogenizer. Lysates were sonicated and the DNA sheared to an average length of 300-500 bp (Active Motif's EpiShear probe sonicator). Genomic DNA (Input) was prepared by treating aliquots of chromatin with RNase, proteinase K and heat for de-crosslinking, followed by clean up using solid phase reversible immobilization (SPRI) beads (Beckman Coulter) and quantitation by Clariostar (BMG Labtech). Extrapolation to the original chromatin volume allowed determination of total chromatin yield. 30 μg of chromatin was pre-cleared with protein A/G agarose beads (Invitrogen). Immunoprecipitations were performed with 4 μg of antibodies against human PU.1, IRF8 and BATF3 (rabbit anti-human PU.1, rabbit anti-human IRF8 or sheep anti-human BATF3). […] To confirm ChIP enrichment, quantitative PCR (QPCR) reactions were carried out in triplicate on specific genomic regions using SYBR Green Supermix (Bio-Rad). […] After a final PCR amplification step, the resulting DNA libraries were quantified and sequenced on Illumina's NextSeq 500 (75 nt reads, single end).\nChIP-seq analysis was performed on the raw FASTQ files. […] For genome tracks, bigwig files were created from bam files with deeptools (https://deeptools.readthedocs.io/en/develop/) and explored using the UCSC Genome Browser. For Chromatin State Fold-Enrichment analysis, enrichment scores for genomic features, such as PU.1, IRF8 and BATF3 ChIP-seq peaks and histone marks were calculated using ChromHMM Overlap Enrichment (http://compbio.mit.edu/ChromHMM/). […] Enrichment scores were calculated as the ratio between the observed and the expected overlap for each feature and chromatin state based on their sizes and the size of the human genome. […]"}}}
{"molecule": "CCCC(CCC)C(=O)O", "note": "[VPA, valproic acid]", "values": [{"measurement": "reprogramming efficiency in human cancer cells", "setting": "[1]", "value": "increased reprogramming efficiency in all tested lines"}, {"measurement": "fold enhancement of CD45^+ MHC-II^+ tumour-APC generation", "setting": "[2]; B16 cells", "value": "~5", "unit": "fold"}, {"measurement": "CD45^+ MHC-II^+ tumour-APCs", "setting": "[2]; B16 cells, 5.9±4.8% without VPA", "value": "29.9±19.3", "unit": "%"}, {"measurement": "MHC-I in transduced cells", "setting": "[2]; LLC and B16 cells transduced with PIB", "value": "upregulate MHC-I"}, {"measurement": "fold enhancement of CD45^+ MHC-II^+ tumour-APC generation", "setting": "[2]; LLC cells", "value": "~3", "unit": "fold"}, {"measurement": "CD45^+ MHC-II^+ tumour-APCs", "setting": "[2]; LLC cells, 15.8±4.79% without VPA", "value": "45.9±25.5", "unit": "%"}, {"measurement": "antigen presentation function of tumour-APCs generated in the presence of VPA", "setting": "[2]; LLC-OVA and B16-OVA cells, OT-I CD8^+ T cells", "value": "presented endogenous antigens to OT-I CD8^+ T cells"}]}
{"molecule": "IFN-γ: cytokine", "values": [{"measurement": "target cells killed by T cells", "setting": "[3]", "value": "12.31±7.1", "unit": "%"}, {"measurement": "fold increase in reprogramming efficiency versus condition without cytokines", "setting": "[4]", "value": 20, "unit": "fold"}, {"measurement": "CD45^+ HLA-DR^+ cell generation (hiDCs)", "setting": "[4]; cytokine added 2 days after induction, 0.4%±0.2% without cytokines", "value": "7.9%±2.2%"}]}
{"molecule": "BATF3: nuclear basic leucine zipper transcription factor, SEQ ID NO: 10 (protein, listed as Homo sapiens, Human BATF3 (protein sequence)) MSQGLPAAGSVLQRSVAAPGNQPQPQPQQQSPEDDDRKVRRREKNRVAAQRSRKQTQKADKLHEEYESLEQENTMLRREIGKLTEELKHLTEALKEHEKMCPLLLCPMNFVPVPPRPDPVAGCLPR", "values": [{"measurement": "chromatin binding, number of peaks", "setting": "[5]", "value": "11,505 peaks"}, {"measurement": "positions shared between the three factors as share of total peaks of the factor", "setting": "[5]", "value": 47, "unit": "%"}]}
{"molecule": "IRF8: transcription factor of the interferon regulatory factor family, SEQ ID NO: 11 (protein, listed as Homo sapiens, Human IRF8 isoform 1 (protein sequence)) MCDRNGGRRLRQWLIEQIDSSMYPGLIWENEEKSMFRIPWKHAGKQDYNQEVDASIFKAWAVFKGKFKEGDKAEPATWKTRLRCALNKSPDFEEVTDRSQLDISEPYKVYRIVPEEEQKCKLGVATAGCVNEVTEMECGRSEIDELIKEPSVDDYMGMIKRSPSPPEACRSQLLPDWWAQQPSTGVPLVTGYTTYDAHHSAFSQMVISFYYGGKLVGQATTTCPEGCRLSLSQPGLPGTKLYGPEGLELVRFPPADAIPSERQRQVTRKLFGHLERGVLLHSSRQGVFVKRLCQGRVFCSGNAVVCKGRPNKLERDEVVVFDTSQFFRELQQFYNSQGRLPDGRVVLCFGEEFPDMAPLRSKLILVQIEQLYVRQLAEEAGKSCGAGSVMQAPEEPPPDQVFRMFPDICASHQRSFFRENQQITV", "values": [{"measurement": "chromatin binding, number of peaks", "setting": "[5]", "value": "18,962 peaks"}, {"measurement": "positions shared between the three factors as share of total peaks of the factor", "setting": "[5]", "value": 28, "unit": "%"}]}
